Test results as given in patent US10782295B2, “Cysteine-reactive ligand discovery in proteomes” (THE SCRIPPS RESEARCH INSTITUTE, priority 2013, dated 2020).

Columns and labels:
EEF2 = molecular target: T1, EEF2 (Homo sapiens, UniProt P13639); experiment: competitive isoTOP-ABPP, MDA-MB-231 soluble proteome; format: binding; settings: 100 μM LDE, 60 min; peptide STLTDSLVC*K
T1 construct: directly in native proteomes; endogenous in cells; host or cells: MDA-MB-231
Experimental: (§1) Here, we envisioned that isoTOP-ABPP could be advanced to discover and quantify reactions between cysteines in proteomes and any electrophilic compound. In this advanced, ‘competitive’ version of isoTOP-ABPP (FIG. 1a), a proteome is treated with an electrophile (experimental sample) or DMSO (control sample). Both proteomic samples are then labeled with the IA probe and conjugated by CuAAC to light and heavy azide-biotin tags, respectively. The light and heavy samples are then mixed and subjected to our described isoTOP-ABPP protocol for enrichment, identification, and quantification of IA-labeled cysteines^30. Electrophile-modified cysteines are quantified by measuring the MS1 chromatographic peak ratios (R values) for heavy (DMSO-treated) over light (electrophile-treated) samples, with higher R values reflecting greater sensitivity to the electrophile. In this format, competitive isoTOP-ABPP can assay electrophiles against 1000+ cysteines in parallel directly in native proteomes without requiring any chemical modification to the electrophiles themselves.
(§2) Competitive isoTOP-ABPP experiments were performed in quadruplicate using the soluble proteome of the human breast cancer cell line MDA-MB-231 cell line. Proteomes were treated with 100 μM HNE, 15d-PGJ2, or 2-HD, for 60 minutes, followed by the IA-probe (100 μM, 60 min) A total of ˜1400 cysteine reactivities were quantified across the aggregate data set, with at least 900 cysteine reactivities quantified for each LDE (FIG. 2a) more than 750 of which were quantified for all the three electrophiles.
(§3) The MDA-MB-231 cell proteome was treated with varying concentrations of HNE (5, 10, 50, 100 and 500 μM) for 60 min and then the IA-labeling profile of each reaction was quantitatively compared to a DMSO-control sample by isoTOP-ABPP.
(§4) HNE was purchased from EMD biosciences, 15d-PGJ2 was purchased from Cayman Chemicals and 2-HD was purchased from Santa Cruz Biotechnology. Proteome samples were diluted to a 4 mg protein/mL solution in PBS. For each profiling experiment, one aliquot of the proteome sample (0.5 mL) was treated with 100 μM of LDE using 5 μL of a 10 mM stock and the other aliquot was treated with 5 μL of either ethanol (for HNE and 15d-PGJ2) or DMSO (for 2-HD) as control. For the concentration-dependent profiling experiments using HNE, aliquots of the proteomes (0.5 mL each) were treated with 5, 10, 50, 100 and 500 μM of HNE using 5 μL of 0.5, 1.0, 5, 10 and 50 mM of stock solution, respectively. After 60 minutes of treatment at room temperature, both the LDE-treated and control aliquots were passed through a NAP-5 Sephadex column (GE healthcare) to remove any unreacted LDE. The volume of each aliquot was increased to 1 mL with the concentration at 2 mg/mL after this step.
(§5) Each of the control and LDE-treated proteome samples (˜2 mg protein/mL in 1 mL volume) was treated with 100 μM of IA-probe using 10 μL of a 10 mM stock in DMSO. The labeling reactions were incubated at room temperature for 1 hour. Click chemistry (acetylene-azide cycloaddition) was performed by the addition of 100 μM of either the Heavy-TEV-Tag (for the control sample) or Light-TEV-Tag (for the LDE-treated sample) (20 μL of a 5 mM stock), 1 mM TCEP (fresh 50× stock in water), 100 μM ligand (17× stock in DMSO:t-Butanol 1:4) and 1 mM CuSO4 (50× stock in water). Samples were allowed to react at room temperature for 1 hour. After the click chemistry step, the light and heavy-labeled samples were mixed together and centrifuged (5900×g, 4 min, 4° C.) to pellet the precipitated proteins.
(§6) The pellets were washed twice in cold MeOH, after which the pellet was solubilized in PBS containing 1.2% SDS via sonication and heating (5 min, 80° C.). Samples were subjected to streptavidin enrichment of probe-labeled proteins, sequential on-bead trypsin and TEV digestion, and liquid chromatography-mass spectrometry (LC-MS) analysis according to the published isoTOP-ABPP protocol^30. […]

RTN4 = molecular target: T2, RTN4 (Homo sapiens, UniProt Q9NQC3); experiment: as above; format: binding; settings: 100 μM LDE, 60 min; peptide YSNSALGHVNC*TIK
T2 construct: directly in native proteomes; endogenous in cells; host or cells: MDA-MB-231
T2 sequence (Q9NQC3 1-1192): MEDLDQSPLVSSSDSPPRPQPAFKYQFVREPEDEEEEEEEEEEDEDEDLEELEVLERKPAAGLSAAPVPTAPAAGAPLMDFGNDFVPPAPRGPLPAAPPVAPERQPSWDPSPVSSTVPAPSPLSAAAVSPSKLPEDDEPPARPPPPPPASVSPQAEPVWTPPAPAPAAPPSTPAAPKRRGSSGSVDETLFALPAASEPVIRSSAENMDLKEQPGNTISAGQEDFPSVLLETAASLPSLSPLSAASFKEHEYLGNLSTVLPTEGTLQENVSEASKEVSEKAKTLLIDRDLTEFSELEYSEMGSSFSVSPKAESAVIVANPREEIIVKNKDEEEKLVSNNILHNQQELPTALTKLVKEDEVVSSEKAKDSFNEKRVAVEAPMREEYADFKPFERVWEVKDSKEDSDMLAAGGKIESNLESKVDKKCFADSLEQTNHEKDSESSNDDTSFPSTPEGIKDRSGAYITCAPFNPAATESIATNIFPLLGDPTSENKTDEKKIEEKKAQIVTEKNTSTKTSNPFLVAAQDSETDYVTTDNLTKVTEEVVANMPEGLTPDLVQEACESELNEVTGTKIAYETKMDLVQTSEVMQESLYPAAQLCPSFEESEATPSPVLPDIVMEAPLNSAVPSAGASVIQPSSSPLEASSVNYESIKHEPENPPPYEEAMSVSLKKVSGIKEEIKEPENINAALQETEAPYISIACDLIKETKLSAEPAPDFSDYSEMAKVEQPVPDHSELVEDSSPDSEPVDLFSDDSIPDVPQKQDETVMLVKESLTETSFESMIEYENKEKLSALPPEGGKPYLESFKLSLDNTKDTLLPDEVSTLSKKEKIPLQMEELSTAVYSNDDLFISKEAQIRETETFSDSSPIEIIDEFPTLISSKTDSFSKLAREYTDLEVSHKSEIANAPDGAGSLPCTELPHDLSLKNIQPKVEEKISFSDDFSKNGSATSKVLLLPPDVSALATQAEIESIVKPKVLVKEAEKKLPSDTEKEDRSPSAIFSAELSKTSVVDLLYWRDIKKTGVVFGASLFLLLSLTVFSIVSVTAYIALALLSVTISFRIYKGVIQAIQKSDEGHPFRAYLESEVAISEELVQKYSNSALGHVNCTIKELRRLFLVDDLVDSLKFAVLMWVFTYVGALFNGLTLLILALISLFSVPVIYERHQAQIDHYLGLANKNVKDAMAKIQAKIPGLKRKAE
Experimental: as §1, §2, §3, §4, §5, §6

| SMILES | R value (isoTOP-ABPP ratio heavy/light) for IA-labeled cysteine of EEF2 (EEF2) | R value (isoTOP-ABPP ratio heavy/light) for IA-labeled cysteine of RTN4 (RTN4) |
| --- | --- | --- |
| CCCCCCCCCCCCC/C=C/C=O [2-HD, 2-trans-hexadecenal] | 1.06 | 1.1 |
| CCCCCC(O)/C=C/C=O (stereo not drawn) [4-HNE, 4-Hydroxynonenal] | 11.63 | 11.78 |
| CCCCC/C=C/C=C1/C(=O)C=C[C@@H]1C/C=C\CCCC(=O)O [PGJ2, 15-deoxy-Δ12,14-prostaglandin J2] | 3.31 | 2.93 |
